Measured values taken from US9579306B2, “Substituted 2-imidazolidinones and 2-imidazolones and their use in the treatment of cancer” (UNIVERSITÉ LAVAL, priority 2011, dated 2017).

CCCN1CCN(c2ccc(S(=O)(=O)Oc3cc(OC)c(OC)c(OC)c3)cc2)C1=O [Compound 101, 3,4,5-trimethoxyphenyl 4-(2-oxo-3-propylimidazolidin-1-yl)benzenesulfonate]
melting point: 133 to 134 °C

CCCN1CCN(c2ccc(S(=O)(=O)Oc3cc(OC)cc(OC)c3)cc2)C1=O [Compound 104, 3,5-dimethoxyphenyl 4-(2-oxo-3-propylimidazolidin-1-yl)benzenesulfonate]
melting point: 104 to 105 °C
